# Columns and labels:
# [1] = test system: Huh-7 cells; experiment: UHPLC-ESI-QTOF-MS/MS lipidomics; format: cell-based, human
# Source text: We then questioned whether lorlatinib used at concentrations efficacious against ALK-rearranged lung cancer cells but non-toxic to ALK-negative cells could promote substantial lipidome changes in Huh-7 cells (Figure 1B; Table 1). Accordingly, […], and the lipidome was characterized in a semi-targeted approach using a UHPLC-ESI-QTOF-MS/MS method, in which we matched mass spectra with commercial standards (SPLAH mix), databases such as METLIN-PCDL and Lipid MAPS (accessed on 1 July 2022), as well as corroboration of tentative lipid species upon obtaining their MS/MS spectrum. Representative chromatograms of lipidomic analyses in Huh-7 cells can be found in Figure S1.
# Lipid extraction, preparation of external calibration curves, and quality control approaches were carried out as described. Samples (2 μL) were injected directly into a 1290 Infinity UHPLC system coupled with a dual Agilent jet stream ESI source to a 6550 QTOF-MS instrument (Agilent Technologies, Santa Clara, CA, USA). UHPLC-ESI-QTOF-MS conditions, data analysis and indirect quantification of selected lipid species using MassHunter Qualitative Analysis B.07.00 software (Agilent Technologies), and corroboration of the tentative characterization of compound match entities using the Lipid Maps database (www.lipidmaps.org, accessed on 1 July 2022) and targeted MS/MS acquisition on LC-QTOF-MS instrument, have been previously described in detail.
# Differentially expressed lipid species from untargeted lipidomic data were analyzed by generating volcano plots indicating statistical significance versus magnitude of fold-change for each lipid species (cutoff of Benjamini–Hochberg corrected p-value < 0.05 and log2 fold-change > 1 or […]).
# [2] = test system: ALK-negative A549 NSCLC cells; experiment: MTT cell viability assay; conditions: read-out: IC50 (cell viability)
# Experimental: (§1) Cell viability effects of lorlatinib were determined using the colorimetric MTT (3-4,5-dimethylthiazol-2-yl-2,5-diphenyl-tetrazolium bromide) reduction assay. Dose–response curves to graded concentrations of lorlatinib were plotted as a percentage of the control cell absorbance, which was obtained from control cells containing the vehicle (DMSO v/v) processed simultaneously. For each treatment, cell viability was evaluated using the following equation: (OD570 of the treated sample/OD570 of the untreated sample) × 100.
# [3] = test system: H3122 NSCLC cell line (ALK rearrangement variant 1); experiment: MTT cell viability assay; conditions: read-out: IC50 (cell viability)
# Experimental: as §1
# [4] = Huh-7 cells, SBN 100 µmol/L, lorlatinib 1 µmol/L, median
smiles,measurement,setting,value
"C[C@H]1Oc2cc(cnc2N)-c2c(nn(C)c2C#N)CN(C)C(=O)c2ccc(F)cc21 [lorlatinib, (10R)-7-amino-12-fluoro-2,10,16-trimethyl-15-oxo-10,15,16,17-tetrahydro-2H-8,4-(metheno)pyrazolo [4,3-h][2,5,11]-benzoxadiazacyclotetradecine-3-carbonitrile]","Change of lipid species, single agent","[1]; Huh-7, 48 h, lorlatinib 1 μmol/L, silibinin 100 μmol/L","significantly increase several species of ChoE, numerous molecular species of long-chain TG, and several DG, LPC, and PC species"
same,Relative concentration of ChoE 16:0,[1]; [4],11.335 µmol/mg protein
same,Relative concentration of ChoE 16:1,[1]; [4],25.820 µmol/mg protein
same,Relative concentration of ChoE 17:0,[1]; [4],2.170 µmol/mg protein
same,Relative concentration of ChoE 17:1,[1]; [4],5.670 µmol/mg protein
same,Relative concentration of ChoE 18:0,[1]; [4],4.365 µmol/mg protein
same,Relative concentration of ChoE 18:2,[1]; [4],33.284 µmol/mg protein
same,Relative concentration of ChoE 18:3,[1]; [4],12.818 µmol/mg protein
same,Relative concentration of ChoE 20:2,[1]; [4],6.459 µmol/mg protein
same,Relative concentration of ChoE 20:3,[1]; [4],42.167 µmol/mg protein
same,Relative concentration of ChoE 20:4,[1]; [4],107.967 µmol/mg protein
same,Relative concentration of ChoE 20:5,[1]; [4],68.788 µmol/mg protein
same,Relative concentration of ChoE 22:4,[1]; [4],27.538 µmol/mg protein
same,Relative concentration of ChoE 22:5,[1]; [4],59.058 µmol/mg protein
same,Relative concentration of DG 34:1,[1]; [4],16.654 µmol/mg protein
same,Relative concentration of DG 34:2,[1]; [4],17.722 µmol/mg protein
same,Relative concentration of DG 34:3,[1]; [4],2.474 µmol/mg protein
same,Relative concentration of DG 36:0,[1]; [4],2.250 µmol/mg protein
same,Relative concentration of DG 36:1,[1]; [4],8.885 µmol/mg protein
same,Relative concentration of DG 36:2,[1]; [4],20.022 µmol/mg protein
same,Relative concentration of DG 36:3,[1]; [4],2.186 µmol/mg protein
same,Relative concentration of DG 36:4,[1]; [4],4.172 µmol/mg protein
same,Relative concentration of DG 40:4,[1]; [4],9.158 µmol/mg protein
same,Relative concentration of LPC 15:0,[1]; [4],0.094 µmol/mg protein
same,Relative concentration of LPC 16:0,[1]; [4],3.165 µmol/mg protein
same,Relative concentration of LPC 16: e,[1]; [4],0.023 µmol/mg protein
same,Relative concentration of LPC 18:0,[1]; [4],1.911 µmol/mg protein
same,Relative concentration of LPC 18:0e,[1]; [4],0.014 µmol/mg protein
same,Relative concentration of LPC 18:1,[1]; [4],1.630 µmol/mg protein
same,Relative concentration of LPC 18:2,[1]; [4],0.188 µmol/mg protein
same,Relative concentration of LPC 20:0,[1]; [4],0.047 µmol/mg protein
same,Relative concentration of LPC 20:3,[1]; [4],0.080 µmol/mg protein
same,Relative concentration of PC 30:0,[1]; [4],6.654 µmol/mg protein
same,Relative concentration of PC 31:0,[1]; [4],3.243 µmol/mg protein
same,Relative concentration of PC 32:0,[1]; [4],20.672 µmol/mg protein
same,Relative concentration of PC 32:1,[1]; [4],56.675 µmol/mg protein
same,Relative concentration of PC 32:1e,[1]; [4],0.780 µmol/mg protein
same,Relative concentration of PC 32:2,[1]; [4],7.800 µmol/mg protein
same,Relative concentration of PC 33:0,[1]; [4],3.109 µmol/mg protein
same,Relative concentration of PC 33:1,[1]; [4],12.338 µmol/mg protein
same,Relative concentration of PC 33:2,[1]; [4],1.113 µmol/mg protein
same,Relative concentration of PC 34:0,[1]; [4],5.917 µmol/mg protein
same,Relative concentration of PC 34:1,[1]; [4],93.696 µmol/mg protein
same,Relative concentration of PC 34:1e,[1]; [4],0.856 µmol/mg protein
same,Relative concentration of PC 34:2,[1]; [4],49.219 µmol/mg protein
same,Relative concentration of PC 34:2e,[1]; [4],0.709 µmol/mg protein
same,Relative concentration of PC 34:3,[1]; [4],5.578 µmol/mg protein
same,Relative concentration of PC 34:4,[1]; [4],0.930 µmol/mg protein
same,Relative concentration of PC 35:1,[1]; [4],6.392 µmol/mg protein
same,Relative concentration of PC 35:2,[1]; [4],6.219 µmol/mg protein
same,Relative concentration of PC 35:4,[1]; [4],1.817 µmol/mg protein
same,Relative concentration of PC 36:0,[1]; [4],0.209 µmol/mg protein
same,Relative concentration of PC 36:1,[1]; [4],24.222 µmol/mg protein
same,Relative concentration of PC 36:2,[1]; [4],46.840 µmol/mg protein
same,Relative concentration of PC 36:2e,[1]; [4],0.101 µmol/mg protein
same,Relative concentration of PC 36:3,[1]; [4],20.945 µmol/mg protein
same,Relative concentration of PC 36:4,[1]; [4],26.422 µmol/mg protein
same,Relative concentration of PC 36:5,[1]; [4],6.790 µmol/mg protein
same,Relative concentration of PC 36:5e,[1]; [4],0.749 µmol/mg protein
same,Relative concentration of PC 38:2,[1]; [4],1.747 µmol/mg protein
same,Relative concentration of PC 38:3,[1]; [4],2.875 µmol/mg protein
same,Relative concentration of PC 38:4,[1]; [4],12.355 µmol/mg protein
same,Relative concentration of PC 38:5,[1]; [4],12.838 µmol/mg protein
same,Relative concentration of PC 38:5e,[1]; [4],0.193 µmol/mg protein
same,Relative concentration of PC 38:6,[1]; [4],9.312 µmol/mg protein
same,Relative concentration of PC 38:6e,[1]; [4],0.353 µmol/mg protein
same,Relative concentration of PC 40:4,[1]; [4],0.298 µmol/mg protein
same,Relative concentration of PC 40:4e,[1]; [4],0.087 µmol/mg protein
same,Relative concentration of PC 40:5,[1]; [4],1.883 µmol/mg protein
same,Relative concentration of PC 40:6,[1]; [4],2.981 µmol/mg protein
same,Relative concentration of PC 42:4e,[1]; [4],0.056 µmol/mg protein
same,Relative concentration of PC 42:5e,[1]; [4],0.118 µmol/mg protein
same,Relative concentration of PE 32:0,[1]; [4],0.231 µmol/mg protein
same,Relative concentration of PE 36:4,[1]; [4],15.311 µmol/mg protein
same,Relative concentration of PE 36:5e,[1]; [4],1.339 µmol/mg protein
same,Relative concentration of PE 38:5e,[1]; [4],0.649 µmol/mg protein
same,Relative concentration of SM 32:0,[1]; [4],0.350 µmol/mg protein
same,Relative concentration of SM 32:1,[1]; [4],2.087 µmol/mg protein
same,Relative concentration of SM 32:2,[1]; [4],0.032 µmol/mg protein
same,Relative concentration of SM 33:1,[1]; [4],1.877 µmol/mg protein
same,Relative concentration of SM 34:1,[1]; [4],22.397 µmol/mg protein
same,Relative concentration of SM 34:2,[1]; [4],1.973 µmol/mg protein
same,Relative concentration of SM 35:0,[1]; [4],1.702 µmol/mg protein
same,Relative concentration of SM 35:1,[1]; [4],0.803 µmol/mg protein
same,Relative concentration of SM 36:0,[1]; [4],0.297 µmol/mg protein
same,Relative concentration of SM 36:1,[1]; [4],1.764 µmol/mg protein
same,Relative concentration of SM 36:2,[1]; [4],0.702 µmol/mg protein
same,Relative concentration of SM 38:1,[1]; [4],0.595 µmol/mg protein
same,Relative concentration of SM 38:2,[1]; [4],0.151 µmol/mg protein
same,Relative concentration of SM 39:1,[1]; [4],0.210 µmol/mg protein
same,Relative concentration of SM 40:0,[1]; [4],0.286 µmol/mg protein
same,Relative concentration of SM 40:1,[1]; [4],1.575 µmol/mg protein
same,Relative concentration of SM 40:2,[1]; [4],0.891 µmol/mg protein
same,Relative concentration of SM 41:1,[1]; [4],0.637 µmol/mg protein
same,Relative concentration of SM 41:2,[1]; [4],0.065 µmol/mg protein
same,Relative concentration of SM 42:1,[1]; [4],2.064 µmol/mg protein
same,Relative concentration of SM 42:2,[1]; [4],3.149 µmol/mg protein
same,Relative concentration of SM 42:3,[1]; [4],0.805 µmol/mg protein
same,Relative concentration of SM 43:1,[1]; [4],0.128 µmol/mg protein
same,Relative concentration of SM 43:2,[1]; [4],0.358 µmol/mg protein
same,Relative concentration of TG 46:0,[1]; [4],1.549 µmol/mg protein
same,Relative concentration of TG 46:1,[1]; [4],2.111 µmol/mg protein
same,Relative concentration of TG 46:2,[1]; [4],1.025 µmol/mg protein
same,Relative concentration of TG 48:0,[1]; [4],2.372 µmol/mg protein
same,Relative concentration of TG 48:1,[1]; [4],5.318 µmol/mg protein
same,Relative concentration of TG 48:2,[1]; [4],4.451 µmol/mg protein
same,Relative concentration of TG 48:3,[1]; [4],1.146 µmol/mg protein
same,Relative concentration of TG 50:0,[1]; [4],1.142 µmol/mg protein
same,Relative concentration of TG 50:1,[1]; [4],9.399 µmol/mg protein
same,Relative concentration of TG 50:2,[1]; [4],11.302 µmol/mg protein
same,Relative concentration of TG 50:3,[1]; [4],4.462 µmol/mg protein
same,Relative concentration of TG 50:4,[1]; [4],1.054 µmol/mg protein
same,Relative concentration of TG 51:2,[1]; [4],2.969 µmol/mg protein
same,Relative concentration of TG 52:1,[1]; [4],3.455 µmol/mg protein
same,Relative concentration of TG 52:2,[1]; [4],16.188 µmol/mg protein
same,Relative concentration of TG 52:3,[1]; [4],12.354 µmol/mg protein
same,Relative concentration of TG 52:4,[1]; [4],3.787 µmol/mg protein
same,Relative concentration of TG 52:5,[1]; [4],1.312 µmol/mg protein
same,Relative concentration of TG 52:6,[1]; [4],0.708 µmol/mg protein
same,Relative concentration of TG 54:2,[1]; [4],3.515 µmol/mg protein
same,Relative concentration of TG 54:3,[1]; [4],11.096 µmol/mg protein
same,Relative concentration of TG 54:4,[1]; [4],6.556 µmol/mg protein
same,Relative concentration of TG 54:5,[1]; [4],4.411 µmol/mg protein
same,IC50,[2],19 ± 5 µM
same,IC50,[3],3 ± 0.2 nM
